# Data from patent publication US20250114325A1 (JIANGSU PROVINCE HOSPITAL OF CHINESE MEDICINE, priority 2022, published 2025).
# Key:
# Assay type in all cases: cell-based, human
# [1] = system: Hela cells; experiment: Annexin V-AF647/PI flow cytometry apoptosis assay; settings: added to Atr-I (BzATP 100 μM or JNJ 20 μM); 48 h
# Method: (§2) The cell lines selected were human cervical cancer Hela (HPV18+) and Siha (HPV16+) cell lines.
# (§3) The proportion of apoptotic cells was measured using the Annexin V-AF647/PI Apoptosis Kit (E-CK-A213; Elabscience Biotechnology, Wuhan, China). The cells in logarithmic growth phase were used and seeded in a culture bottle at a suspension density of 1×10^6 cells/mL, and then cultured in a CO2 incubator for 24 h. […] Subsequently, the cells were re-suspended in 500 μL of the binding buffer. After adding 5 μL of Annexin V-AF647 and 5 μL of PI to the cell suspension, respectively, the cell cycle was assayed using FACSCalibur flow cytometry (BD Biosciences, San Jose, CA, USA). The data were analyzed with FlowJo software (FlowJo, Ashland, OR, USA).
# [2] = system: SiHa cells; experiment: Cell proliferation experiment (CCK-8 cell viability); settings: single agent, 24 h, 48 h, 72 h, dose and time-dependent
# Method: (§1) Assay of cell viability by CCK-8 kit: Cells (cell density: 1000 cells/well) were inoculated in a 96-well plate and cultured for 24 hours. […] Cell proliferation was detected using Cell Counting Kit-8 (CCK-8).
# [3] = system: Hela cells; experiment: as above; settings: single agent, 24 h, 48 h, 72 h, dose and time-dependent
# Method: as §1
# [4] = system: SiHa cells; experiment: Annexin V-AF647/PI flow cytometry apoptosis assay; settings: added to Atr-I (BzATP 100 μM or JNJ 20 μM); 48 h
# Method: as §2, §3
compound,measurement,setting,value
Nc1ncnc2c1ncn2[C@@H]1O[C@H](COP(=O)(O)OP(=O)(O)OP(=O)(O)O)[C@@H](OC(=O)c2ccc(C(=O)c3ccccc3)cc2)[C@H]1O [BzATP],effect on Atr-I-induced apoptosis in Hela cells,[1],inhibited Atr-I-induced apoptosis in Hela cells
same,inhibition of growth of SiHa cells,[2],significantly inhibited the growth
same,inhibition of growth of Hela cells,[3],significantly inhibited the growth
same,effect on Atr-I-induced apoptosis in SiHa cells,[4],had no effect on Atr-I-induced apoptosis in SiHa cells
